Results reported in patent US10633389B2, “CARM1 inhibitors and uses thereof” (Epizyme, Inc., priority 2013, dated 2020).

system: asymmetric di-methyl PABP1 in RKO cells; test: RKO methylation assay, In Cell Western (ICW) for asymmetric di-methyl PABP1; type: cell-based; conditions: Homo sapiens, RKO, Cellular potencies, ICW PABP1me2a
Source text: RKO adherent cells were purchased from ATCC (American Type Culture Collection), Manassas, Va., USA. DMEM/Glutamax medium, penicillin-streptomycin, heat inactivated fetal bovine serum, 0.05% trypsin and D-PBS were purchased from Life Technologies, Grand Island, N.Y., USA. Odyssey blocking buffer, 800 CW goat anti-rabbit IgG (H+L) antibody, and Licor Odyssey infrared scanner were purchased from Licor Biosciences, Lincoln, Nebr., USA. Asymmetric di-methyl PABP1 antibody was purchased from Cell Signaling Technology, Danvers, Mass., USA. Methanol was purchased from VWR, Franklin, Mass., USA. 10% Tween 20 was purchased from KPL, Inc., Gaithersburg, Md., USA. Paraformaldehyde (PFA) was purchased from EM Sciences. DRAQ5 was purchased from Biostatus Limited, Leicestershire, UK.
RKO adherent cells were maintained in growth medium (DMEM/Glutamax medium supplemented with 10% v/v heat inactivated fetal bovine serum and 100 units/mL penicillin-streptomycin) and cultured at 37° C. under 5% CO2.
Cell treatment, In Cell Western (ICW) for detection of asymmetric di-methyl PABP1 and DNA content: RKO cells were seeded in assay medium at a concentration of 30,000 cells per mL to a poly-D-lysine coated 384 well culture plate (BD Biosciences 356697) with 50 VL per well. Compound (100 nL) from a 96-well source plate was added directly to 384 well cell plate. Plates were incubated at 37° C., 5% CO2 for 48 hours. After two days of incubation, plates were brought to room temperature outside of the incubator for ten minutes and blotted on paper towels to remove cell media. Cells were fixed for 20 minutes at room temperature by adding 50 ul of 8% PFA followed by aspiration of supernatant with the Biotek EL406 plate washer. Cells were then permeabilized by addition of 50 μL of ice cold 100% methanol directly to each well and incubated for 30 min at room temperature. After 30 min, plates were transferred to a Biotek EL406 plate washer and washed 2 times with 100 μL per well of wash buffer (1×PBS). Next 60 μL per well of Odyssey blocking buffer (Odyssey Buffer with 0.1% Tween 20 (v/v)) were added to each plate and incubated 1 hour at room temperature. Blocking buffer was removed and 20 μL per well of primary antibody was added (asymmetric-methyl PABP1) diluted 1:400 in Odyssey buffer with 0.1% Tween 20 (v/v)) and plates were incubated overnight (16 hours) at 4° C. Plates were washed 5 times with 100 μL per well of wash buffer. Next 20 μL per well of secondary antibody was added (1:800 800 CW goat anti-rabbit IgG (H+L) antibody, 1:2000 DRAQ5 in Odyssey buffer with 0.1% Tween 20 (v/v)) and incubated for 1 hour at room temperature. The plates were washed 5 times with 100 μL per well wash buffer then 2 times with 100 μL per well of water. Plates were allowed to dry at room temperature then imaged on the Licor Odyssey machine which measures integrated intensity at 700 nm and 800 nm wavelengths. Both 700 and 800 channels were scanned.
First, the ratio for each well was determined by:
Each plate included fourteen control wells of DMSO only treatment (minimum inhibition) as well as fourteen control wells for maximum inhibition treated with 20 μM of a reference compound. The average of the ratio values for each control type was calculated and used to determine the percent […] for each test well in the plate. Reference compound was serially diluted three-fold in DMSO for a total of nine test concentrations, beginning at 20 μM.
Percent inhibition was determined and IC50 curves were generated using triplicate wells per concentration of compound. […]

`CNCC(O)COc1cccc(-c2nc(OCC3CCOCC3)c(C)c(-c3c(C)noc3C)n2)c1` (stereo not drawn) [Example 182-1a] and `CNC[C@H](O)COc1cccc(-c2nc(NC3CCOCC3)cc(-c3c(C)noc3C)n2)c1` [Example 17-1a] cannot be ordered by IC50: < 5 µM for the first, < 5 µM for the second.

`CNC[C@@H](O)COc1ccc(Cl)c(-c2nc(-c3c(C)noc3C)c(C)c(N3Cc4c(C)nn(C)c4C3)n2)c1` [Example 236-3] and `CNC[C@@H](O)COc1ccc(Cl)c(-c2nc(-c3c(C)noc3C)c(C)c(N3Cc4cn(C(C)C)nc4C3)n2)c1` [Example 272-3] cannot be ordered by IC50: < 5 µM for the first, < 5 µM for the second.

First: CNCC(O)COc1cccc(-c2nc(-c3c(C)noc3C)cc(N(C)C3CCN(C(=O)OC)CC3)n2)c1 (stereo not drawn) [Example 90-1a]
Second: CCN1CCN(c2cc(-c3c(C)noc3C)nc(-c3cccc(OCC(O)CNC)c3)n2)CC1 (stereo not drawn) [Example 20-1a]
The IC50 of the first is lower: < 5 µM for the first, 5 to 10 µM for the second. The first is the more potent here.

Compared with `CNCC(O)COc1cccc(-c2nc(-c3c(C)noc3C)c(C)c(N3CCN(Cc4ccccc4)C(C(F)F)C3)n2)c1` (stereo not drawn) [Example 235-1a], `CNCC(O)COc1cccc(-c2nc(-c3c(C)noc3C)c(C)c(N3CCNC(C(F)F)C3)n2)c1` (stereo not drawn) [Example 47-3] is higher in IC50: < 5 µM for the first, 10 to 20 µM for the second.

Compared with `CNCC(O)COc1cccc(-c2nc(N[C@@H]3CCOC3)c(C)c(N3CCNCC3)n2)c1` (stereo partly drawn) [Example 422-1a], `CNCC(O)COc1cccc(-c2nc(NC3CCOC3)c(C)c(N3CCN(C)C(C)(C)C3)n2)c1` (stereo not drawn) [Example 455-1a] is lower in IC50: 10 to 20 µM for the first, < 5 µM for the second. The second is the more potent here.

First: CNCC(O)COc1cccc(-c2nc(N[C@@H]3CCOC3)c(C)c(N3CC[C@@H](N(C)C)C3)n2)c1 (stereo partly drawn) [Example 392-1a]
Second: CNCC(O)COc1cccc(-c2nc(-c3c(C)noc3C)c(C)c(N3CCO[C@H](C)C3)n2)c1 (stereo partly drawn) [Example 211-1a]
The IC50 of the first is higher: 5 to 10 µM for the first, < 5 µM for the second. The second is the more potent here.

`CNC[C@H](O)COc1ccc(Cl)c(-c2nc(-c3c(C)noc3C)c(C)c(N3Cc4cc(F)cnc4C3)n2)c1` [Example 86-3] and `CNC[C@@H](O)COc1ccc(F)c(-c2nc(-c3c(C)noc3C)c(C)c(N3Cc4cnn(C)c4C3)n2)c1` [Example 223-3] cannot be ordered by IC50: < 5 µM for the first, < 5 µM for the second.

`CNC[C@@H](O)COc1ccc(Cl)c(-c2nc(NC[C@H]3CCCO3)c(C)c(-c3c(C)noc3C)n2)c1` [Example 130-3] and `CNC[C@@H](O)COc1ccc(Cl)c(-c2nc(N[C@@H]3CO[C@H](C)C3)c(C)c(-c3c(C)noc3C)n2)c1` [Example 179-3] cannot be ordered by IC50: < 5 µM for the first, < 5 µM for the second.

`CNCC(O)COc1cccc(-c2nc(NC[C@H]3COCCN3C(=O)N(C)C)c(C)c(-c3c(C)noc3C)n2)c1` (stereo partly drawn) [Example 258-1a] and `CNCC(O)COc1cccc(-c2nc(-c3c(C)noc3C)c(C)c(N3C[C@H]4CC[C@@H](C3)N4C)n2)c1` (stereo partly drawn) [Example 116-1a] fall in the same range of IC50: 5 to 10 µM for the first, 5 to 10 µM for the second.

`CCO[C@H]1CCC[C@@H]1Nc1nc(-c2cc(OC[C@H](O)CNC)ccc2Cl)nc(-c2c(C)noc2C)c1C` [Example 222-3] and `CCO[C@@H]1CCC[C@H]1Nc1nc(-c2cc(OC[C@H](O)CNC)ccc2F)nc(-c2c(C)noc2C)c1C` [Example 191-3] cannot be ordered by IC50: < 5 µM for the first, < 5 µM for the second.

First: CNCC(O)COc1cccc(-c2nc(-c3ccnc(C#N)c3)cc(N(C)C3CCOCC3)n2)c1 (stereo not drawn) [Example 498-1a]
Second: CNCC(O)COc1cccc(-c2nc(-c3nc(C)cs3)cc(N(C)C3CCOCC3)n2)c1 (stereo not drawn) [Example 624-1a]
The IC50 of the first is lower: < 5 µM for the first, 10 to 20 µM for the second. The first is the more potent here.

First: CNCC(O)COc1cccc(-c2nc(SC)cc(N(C)C3CCOCC3)n2)c1 (stereo not drawn) [Example 573-1a]
Second: CNCC(O)COc1cc(Cl)cc(-c2nc(-c3ccncc3C3CC3)cc(N(C)C3CCOCC3)n2)c1 (stereo not drawn) [Example 522-1a]
The IC50 of the first is higher: 10 to 20 µM for the first, 5 to 10 µM for the second. The second is the more potent here.

`CNC[C@@H](O)COc1ccc(F)c(-c2nc(N[C@H]3CCN(C4CC4)C[C@H]3F)c(C)c(-c3c(C)noc3C)n2)c1` [Example 98-3] and `CCN1CCC(Nc2nc(-c3cc(OC[C@H](O)CNC)ccc3Cl)nc(-c3c(C)noc3C)c2C)C(F)(F)C1` (stereo partly drawn) [Example 291-3] cannot be ordered by IC50: < 5 µM for the first, < 5 µM for the second.

`CNC[C@@H](O)COc1ccc(Cl)c(-c2nc(-c3c(C)noc3C)c(C)c(N3CC(F)(F)C3)n2)c1` [Example 184-3] was tested, and the IC50 was < 5 µM.
